pIC50: −log10 of the molar value.
What was measured:
[1] = test system: βCat-eGFP reporter in human U2OS cells; assay: Cellular β-catenin stability assay (βCat-eGFP reporter); format: cell-based; details: for β-catenin accumulation: βCat-eGFP reporter assay
Procedure: Cellular-β-Catenin Stability Assay: To study effects of small molecules on GSK-3/β-catenin signaling in cells, we optimized an image-based assay that measures β-catenin stability. This assay uses human U2OS cells engineered to express a genetically encoded fluorescent reporter consisting of a fusion of β-catenin to enhanced green fluorescent protein (eGFP) that were obtained from Thermo Fisher Scientific (Denmark). […] Lithium treatments at 10 mM and valproic acid at 10 mM also have the same effect in this assay. […] Cells were imaged on an ImageXpress Micro (Molecular Devices) automated microscope at 10× magnification with detection of both DNA and eGFP fluorescence. The percentage of eGFP positive cells was calculated and compared to an untreated control.

[2] = test system: amphetamine-induced hyperactivity in C57BL/6J mice; assay: Amphetamine-induced hyperactivity (AIH) in C57BL/6J mice; format: in vivo
[3] = test system: panel of 358 kinases; assay: KINOMEscan active-site dependent competition binding assay; details: 10 μM
[4] = Serum level after systemic administration
[5] = test system: TCF/LEF reporter in HEK293 cells; assay: TCF/LEF reporter assay with lithium; format: cell-based; details: FIG. 12
[6] = test system: amphetamine-induced hyperactivity in DBA/2J mice; assay: Lithium-nonresponsive AIH in DBA/2J mice; format: in vivo; details: for effect on AIH: DBA/2J
[7] = test system: dopamine transporter (DAT) knockout mice; details: 10 mg/kg; i.p.; cited from earlier work
[8] = molecular target: T1, human GSK-3β (Homo sapiens, UniProt P49841); assay: in vitro GSK-3β kinase assay (Kinase-Glo luminescence); format: biochemical; details: FIG. 9 dose response, n=4
T1 construct: Recombinant full-length human GSK-3β (NM_002093) with an N-terminal GST tag; GST (N); purchased BPS Biosciences 40007; host or cells: Sf9 insect cells (baculovirus)

[9] = ICV 1 μl of 0.1, 1.4, 14 μg/μl, FIGS. 16-18
[10] = intra-striatal infusion, 1 μl of 1.4 μg/μl, FIG. 22

T1 sequence (P49841 1-433 isoform P49841-2): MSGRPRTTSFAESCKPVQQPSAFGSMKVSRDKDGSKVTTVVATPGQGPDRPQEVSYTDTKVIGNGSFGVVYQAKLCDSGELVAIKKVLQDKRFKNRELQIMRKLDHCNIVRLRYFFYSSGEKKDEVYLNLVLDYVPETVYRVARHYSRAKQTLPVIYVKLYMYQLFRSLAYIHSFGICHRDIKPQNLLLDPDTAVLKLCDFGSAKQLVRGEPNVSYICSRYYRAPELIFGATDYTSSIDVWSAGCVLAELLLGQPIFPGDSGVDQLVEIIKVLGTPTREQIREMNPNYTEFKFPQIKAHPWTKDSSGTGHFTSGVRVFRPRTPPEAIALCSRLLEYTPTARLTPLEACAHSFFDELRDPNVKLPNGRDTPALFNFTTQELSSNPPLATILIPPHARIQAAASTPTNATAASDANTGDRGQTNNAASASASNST

SMILES: CN(C)C[C@@H]1CCn2cc(c3ccccc32)C2=C(C(=O)NC2=O)c2cn(c3ccccc23)CCO1 [ruboxistaurin]
- β-catenin accumulation [1]: able to cause β-catenin accumulation
- effect on AIH [2, 9]: moderate attenuating effect
- Number of Binding Targets (kinases) [3]: 95

SMILES: Cc1c[nH]c(-c2cnc(NCCNc3ccc(C#N)cn3)nc2-c2ccc(Cl)cc2Cl)n1 [CHIR-99021]
- maximum serum level ([4]; 3.125 mg/kg systemic, extrapolated): 3 to 4 µM
- maximum serum level ([4]; 3.125 mg/kg systemic, extrapolated, listed as compound of formula 7): about 4 μM
- maximum serum level ([4]; 12.5 mg/kg systemic): about 15 μM
- maximum serum level ([4]; 50 mg/kg systemic): about 69 μM
- TCF/LEF reporter signal: effect of addition of lithium ([5]; high concentration of Chir99021): synergistic effect
- TCF/LEF reporter signal: effect of addition of lithium ([5]; lower concentrations of Chir99021): only an additive effect
- effect on AIH ([2]; 6.25 mg/kg single dose i.p., FIG. 24): non-effective dose
- effect on AIH ([2]; 12.5 mg/kg single dose i.p., FIG. 24): significantly decreased amphetamine-induced hyperactivity
- effect on AIH ([2]; 25 mg/kg single dose i.p., FIG. 24): significantly decreased amphetamine-induced hyperactivity
- effect on AIH [2, 9]: effective in attenuating AIH to levels comparable to those observed after lithium administration
- effect on AIH [2, 10]: almost complete ablation of the amphetamine-induced hyperactivity
- lowest dose that attenuated AIH ([2]; systemic (i.p.), C57BL/6J mice): 12.5 mg/kg
- effect on AIH ([6]; 50 mg/kg i.p., FIG. 26): significant attenuation of AIH
- effect on AIH ([6]; ICV 0.14 μg (1 μl infusion), FIG. 28): significantly attenuated AIH
- effect on AIH ([6]; ICV 1.4 μg (1 μl infusion), FIG. 28): significantly attenuated AIH
- lowest dose that attenuated AIH ([6]; systemic (i.p.), DBA/2J mice, FIG. 27): 0.78 mg/kg
- Number of Binding Targets (kinases) [3]: 10

SMILES: Cn1cc(C2=C(c3cn(C4CCN(Cc5ccccn5)CC4)c4ccccc34)C(=O)NC2=O)c2ccccc21 [enzastaurin]
- β-catenin accumulation [1]: able to cause β-catenin accumulation
- effect on AIH [2, 9]: no effect in AIH
- effect on AIH [2, 10]: modestly effective
- Number of Binding Targets (kinases) [3]: 75

SMILES: Cn1cc(C2=C(c3ccc(Cl)cc3Cl)C(=O)NC2=O)c2ccccc21 [SB-216763]
- hyperactivity in DAT knockout mice [7]: attenuates hyperactivity
- effect on AIH ([2]; 5, 10, 20 mg/kg i.p.): None of these GSK-3 inhibitors showed a significant effect on hyperactivity
- effect on AIH ([2]; ICV in DMSO vehicle): None of these GSK-3 inhibitors showed a significant effect on hyperactivity
- Number of Binding Targets (kinases) [3]: 31

SMILES: CCCC(CCC)C(=O)O [valproic acid]
- eGFP fluorescence and accumulation of βCat-eGFP reporter ([1]; 10 mM): same effect

SMILES: CN(C)CCCn1cc(C2=C(c3c[nH]c4ccccc34)C(=O)NC2=O)c2ccccc21 [BIM-I, bisindoylmaleimide I]
- pIC50 [8]: ~8.16

SMILES: COc1ccc(CNC(=O)Nc2ncc([N+](=O)[O-])s2)cc1 [AR-A014418]
- eGFP fluorescence and accumulation of βCat-eGFP reporter ([1]; 20 μM over 20 hrs): dose dependent increase in eGFP fluorescence
- effect on AIH ([2]; 9 mg/kg i.p., FIG. 19): None of these GSK-3 inhibitors showed a significant effect on hyperactivity

— patent US9265764B2, “Uses of chemicals to modulate GSK-3 signaling for treatment of bipolar disorder and other brain disorders” (Massachusetts Institute of Technology, priority 2009, dated 2016)
